Experiments:
ACO1, Ma01_g11540 = test: Trait co-editing in selected embryos (PBE #3); assay type: cell-based, banana
Procedure: (§1) We transformed ECS as described previously in Example 6, using the new co-editing plasmids detailed in Table 11 above. Embryos were regenerated as detailed previously, either on media without selection, with 25 mg/L G418, 25 μg/L CSF or 50 μg/L CSF. Initial genotyping of all plasmids tested:
(§2) • All with CsVMV-rAPOBEC1 CBE (rAPOBEC+nCas9 (D10A) PBE from Zong et al. 2017*) and nosP-NptII • pMol_0925 (sgGFP-pNOS::Kan::tOCS-pCsVMV::nCas9PBE1::tg7-Dummy-pTaU6::sg1GFP_58-pTaU6::sg2GFP_59) • pMol_0934 (sgGFP, sgALS1-pNOS::Kan::tOCS-pCsVMV::nCas9PBE1::tg7-taU6::MaALS1sg2_2021-pTaU6::sg1GFP_58-pTaU6::sg2GFP_59) • pMol_0935 (sgGFP, sgALS2-pNOS::Kan::tOCS-pCsVMV::nCas9PBE1::tg7-taU6::MaALS2sg2_2023-pTaU6::sg1GFP_58-pTaU6::sg2GFP_59) • pMol_0926 (sgPPO2, sgALS1-pNOS::Kan::tOCS-pCsVMV::nCas9PBE1::tg7-taU6::MaALS1sg2_2021-pTaU6::sg1PPO2_2961-pTaU6::sg2PPO2_2962-pTaU6::sg3PPO2_2963) • pMol_0927 (sgPPO2, sgALS1-pNOS::Kan::tOCS-pCsVMV::nCas9PBE1::tg7-taU6::MaALS1sg2_2021-pTaU6::sg3PPO2_2963-pTaU6::sg4PPO2_2964) • pMol_0928 (sgACO1, sgALS1-pNOS::Kan::tOCS-pCsVMV::nCas9PBE1::tg7-taU6::MaALS1sg2_2021-pTaU6::sg1ACO1_2965-pTaU6::sg2ACO1_2966-pTaU6::sg3ACO1_2967) • pMol_0929 (sgPPO2, sgALS2-pNOS::Kan::tOCS-pCsVMV::nCas9PBE1::tg7-taU6::MaALS2sg2_2023-pTaU6::sg1PPO2_2961-pTaU6::sg2PPO2_2962-pTaU6::sg3PPO2_2963) • pMol_0930 (sgPPO2, sgALS2-pNOS::Kan::tOCS-pCsVMV::nCas9PBE1::tg7-taU6::MaALS2sg2_2023-pTaU6::sg3PPO2_2963-pTaU6::sg4PPO2_2964) • pMol_0931 (sgACO1, sgALS2-pNOS::Kan::tOCS-pCsVMV::nCas9PBE1::tg7-taU6::MaALS2sg2_2023-pTaU6::sg1ACO1_2965-pTaU6::sg2ACO1_2966-pTaU6::sg3ACO1_2967) ECS were left to ‘recover’ after transformation for 1 week in CS+cefo 300 mg/L. We regenerated embryos in 4 different conditions: • 1. No selection • 2. Stable G418 selection (in EDM only 2-3 months) from PBE #3 only (PBE #1/2 plasmids only have mCherry, not NptII) • 3. 25 μg/L chlorsulfuron (in EDM only 2-3 months) • 4. 50 μg/L chlorsulfuron (in EDM only 2-3 months)
(§3) gDNA from embryos and plantlets was extracted and qPCR was used to test for the presence of integrated tDNA in the plant genome. Three independent qPCRs were run on each sample with different sets of primers (listed below) spanning the tDNA, ranging from the left to right border. An additional qPCR was run on an endogenous banana gene (actin) for normalisation of Ct values. All qPCRs were run on the LightCycler® 96 System (Roche) using PowerUp™ SYBR® Green Master Mix (Thermo Fisher Scientific™).
(§4) For edit validation, amplicons for each target gene (als1, als2, ppo2, aco1) were made using Q5® High-Fidelity 2× Master Mix (New England Biolabs, NEB) using reaction settings listed below. PCR products were purified using Monarch® PCR & DNA Cleanup Kit (NEB) according to manufacturer's specifications. The amplicons were after validated by Sanger sequencing.

PPO2, Ma07_g03540 = test: Trait co-editing in selected embryos (PBE #3); assay type: cell-based, banana; details: for PPO2 edited embryos total: 16 embryos tested
Procedure: as §1, §2, §3, §4

ALS1 or ALS2 = test: Genotyping of CSF-selected samples (PBE experiments); assay type: cell-based, banana; details: across all experiments, embryos and shoots
From the text: as §3, §4

Sugar cane callus = details: after 5 weeks; 3.6, 20, 50, 200, 500 μg/L tested; cited from earlier work

In the case of `COc1nc(C)nc(NC(=O)NS(=O)(=O)c2ccccc2Cl)n1` [CSF, chlorsulfuron], the “Percentage edited ACO1 embryos” value (ACO1, Ma01_g11540; 25CSF selection) is reported as 75, the “ACO1 edited embryos total” value (ACO1, Ma01_g11540; 25CSF selection, 8 embryos tested) is reported as 6 and the “Percentage edited ACO1 embryos” value (ACO1, Ma01_g11540; 50CSF selection) is reported as 100. For the same compound, the “ACO1 edited embryos total” value (ACO1, Ma01_g11540; 50CSF selection, 7 embryos tested) was 7, the “Percentage edited PPO2 embryos” value (PPO2, Ma07_g03540; 25CSF selection) was 37.5 and the “PPO2 edited embryos total” value (PPO2, Ma07_g03540; 25CSF selection) was 6. The “Percentage edited PPO2 embryos” value (PPO2, Ma07_g03540; 50CSF selection) was 43.75, the “PPO2 edited embryos total” value (PPO2, Ma07_g03540; 50CSF selection) was 7 and the “Non-transgenic rate in CSF selected samples” value (ALS1 or ALS2) was greater than 10%. The “Best concentration for selection” value (Sugar cane callus) was 3.6 µg/L.
